In patent US5703056A, “Non-invasive imaging of gene transfer” (priority 1995, dated 1997):
Where two headings read alike, the source gives them in different places.

Experiments:
[1] = Quantitative autoradiography of 2-[14C]-FIAU in i.c. RG2TK+ and RG2 tumors; format: in vivo, rat; conditions: rat, iv, 50 uCi
Experimental: (§1) Two rats were prepared with i.c. RG2TK+ and RG2 tumors as described above. […] The brain was rapidly extracted and frozen in preparation for cryosectioning and quantitative autoradiography (QAR). [Blasberg, Seminars in Neurology] […] To convert the x-ray images to tissue radioactivity (nCi/g), the optical density of the standards was measured by computerized image analysis. A standard curve that relates mean optical density and tissue radioactivity was generated for each film. […]

RG2TK+ and RG2 tumors = assay: as above; format: in vivo, rat; conditions: for Sensitivity* Δ(substrate % dose/g)/Δ(HSV1TK mRNA/S28 RNA IOD): autoradiographic data
Experimental: as §1

HSV1-TK = HSV1-TK (Human alphaherpesvirus 1 strain 17, UniProt P0DTH5); assay: Single 120 minute paired accumulation of FIAU and IUdR by RG2TK+ and RG2 cells; format: cell-based, herpes simplex virus; conditions: Data from FIG. 6A
Experimental: The processing of cells and incubation medium was the same as that described above. A portion of the harvested cells was also processed for acid-insoluble (10% TCA) radioactivity. Decay corrected ^123 I-radioactivity was measured in a Packard AutoGamma 5550 Spectrometer. Samples were stored for 1 week to allow for ^123 I decay (12 half lives), and recounted afterwards in the Packard B1600 TriCarb beta spectrometer to determine ^3 H- and ^14 C-radioactivity.
All radioactivity measurements were expressed as a percent of administered dose per gram of tissue or per unit volume of fluid as described above.
Data analysis. […] These two related measures are useful to evaluate the intensity of the images (e.g., high "sensitivity") and the ability to differentiate between HSV1-TK and endogenous-TK in the images (e.g., high "selectivity"). The "selectivity" measure is not interpreted as a relative sensitivity (i.e., a value of 1 indicating equal sensitivity) of the substrate to HSV1-TK vs. endogenous-TK. […] They are intended for the direct comparison of substrates only.

[2] = Calculated permeability surface area product (PS) of the cerebral capillaries; set-up: unit not given here
Description: Passage of the nucleosides across the blood brain barrier (BBB) is an important factor to consider in the design of radiolabelled 2'-fluoro-nucleoside analogues for imaging HSV1-TK expression in the brain. […] It is known that brain capillary permeability for many compounds is related to their octanol/water partition coefficient (P) and molecular weight. [Levin, V. N. J. Med. Chem., 23: 682-4, 1980] Several authors have described a relationship between the brain capillary permeability and log P or log P·Dm, where Dm is a measure of diffusibility. […] [Dischino, D. D., Welch, M. J., Kilbourn, M. N., and Raichle, M. E., J. Nucl. Med., 24: 1030-8, 1983] […] Fenstermacher, J. D. Drug transfer across the blood brain barrier. In: Topics in Pharmaceutical Sciences. Ed.: Breimer, D. D., and Speiser, P. Amsterdam: Elsevier, pp. 143-54, 1983; Fenstermacher, J. D., and Rapoport, S. I. In: Handbook of Physiology. The Cardiovascular System. Microcirculation. Bethesda, Md.: Am. Physiol. Soc., sect. 2, Vol. IV, pt. 2, chapt. 21, p. 969-1000, 1984; Fenstermacher, J. D. In: Implications of Blood-Brain Barrier and Its Manipulation. Basic Science Aspects. Ed. by Neuwelt, E., New York: Plenum, Vol. 1, Chapt. 6, pp. 132-55, 1988]

Chain of HSV1-TK (P0DTH5 whole entry): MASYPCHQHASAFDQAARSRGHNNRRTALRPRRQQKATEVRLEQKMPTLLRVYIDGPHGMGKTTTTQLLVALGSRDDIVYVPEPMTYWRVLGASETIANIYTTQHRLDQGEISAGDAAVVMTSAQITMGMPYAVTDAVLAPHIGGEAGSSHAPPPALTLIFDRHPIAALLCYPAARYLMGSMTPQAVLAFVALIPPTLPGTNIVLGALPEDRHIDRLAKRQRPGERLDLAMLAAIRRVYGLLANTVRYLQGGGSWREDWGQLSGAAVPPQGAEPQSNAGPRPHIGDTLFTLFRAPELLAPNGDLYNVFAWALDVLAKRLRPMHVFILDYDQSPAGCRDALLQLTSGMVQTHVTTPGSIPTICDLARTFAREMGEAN

For `O=c1[nH]c(=O)n([C@@H]2O[C@H](CO)[C@@H](O)[C@@H]2F)cc1I` [FIAU, 2'-fluoro-5-iodo-1-β-D-arabinofuranosyl-uracil], the tissue uptake at 24 h ([1]; brain, 24 h, level of detection on the autoradiograms, read-out: adjacent brain activity) was under 0.005 %ID/g, the tissue uptake at 24 h ([1]; i.c. rg2tk+ tumor, i.c. RG2TK+ tumor, 24 h, read-out: peak activity) was 0.43 %ID/g and the tissue uptake at 24 h ([1]; intracerebral tumor, i.c. RG2TK+ tumor, 24 h after 50 uCi 2-[14C]-FIAU i.v., read-out: mean activity) was 0.18 ± 0.14 %ID/g. For the same molecule, the “difference in radioactivity localized to transduced compared to non-transduced tumor” value (RG2TK+ and RG2 tumors; 4 hours after tracer, RG2TK#16 vs RG2 i.c., non-rinsed autoradiogram) was “only a small difference”, the “Sensitivity* Δ(substrate % dose/g)/Δ(HSV1TK mRNA/S28 RNA IOD)” value (RG2TK+ and RG2 tumors; RG2TK#16/RG2 i.c. tumors) was 0.0058 and the “Sensitivity* Δ(substrate % dose/g)/Δ(HSV1TK mRNA/S28 RNA IOD)” value (RG2TK+ and RG2 tumors; RG2TK+/RG2 i.c. tumors) was 0.0039. The peak activity (RG2TK+ and RG2 tumors; i.c. RG2TK+ tumor, 24 h) was 0.43 % dose/g, the “Sensitivity* Δ(substrate/TdR)/Δ(HSV1TK mRNA/S28 RNA IOD)” value (HSV1-TK) was 0.0105 and the “PS*” value ([2]; calculated from measured log P and MW: log(PS)=5.2+log(P·Dm)) was 0.59. For the same molecule, the “PS+” value ([2]; calculated from published log P and MW: log(PS)=5.2+log(P·Dm)) was 0.59.
